Assay results reported in paper PMC12629174, “Exploring Bioactive Metabolites From Fusarium falciforme and Aspergillus terreus Isolated From Protease‐Rich Fruits: Antifungal, Antitrypanosomal, and Enzymatic Inhibitory Activities” (Chemistry & Biodiversity, 2025).
Read-outs that look alike come from different tables or passages of the source.

Key:
papain [1] = biological target: T1, papain (Carica papaya, UniProt P00784); assay: fluorimetric papain assay with ZFR-MCA substrate; type: biochemical
T1 sequence (P00784 134-345): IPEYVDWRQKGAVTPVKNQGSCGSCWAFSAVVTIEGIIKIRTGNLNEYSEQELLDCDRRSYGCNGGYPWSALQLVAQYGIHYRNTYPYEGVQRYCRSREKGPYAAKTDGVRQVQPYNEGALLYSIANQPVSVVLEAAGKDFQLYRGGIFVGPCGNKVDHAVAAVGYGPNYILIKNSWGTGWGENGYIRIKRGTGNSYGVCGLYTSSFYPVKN

papain [2] = biological target: T1, papain; assay: fluorimetric papain assay with ZFR-MCA; titration of papain by the irreversible inhibitor (positive control); type: biochemical; details: read-out: % inhibition at 1 μM (25 nM in the well)

IC50 (papain [1]; read-out: IC50)	Structure (SMILES)	other results
9.38 µM	CC(=C\C(=O)O)/C=C(\C)C[C@H](C)CCCC[C@H]1OC(=O)[C@@H]1CO [compound 1, hymeglusin]	–
–	COC(=O)[C@]1(Cc2ccc(O)c(CC=C(C)C)c2)OC(=O)C(O)=C1c1ccc(O)cc1 [compound 3, butyrolactone I]	IC50 (papain [1]): 6.24 µM
28.6 µM	CC(=C\C(=O)O)/C=C(\C)C[C@H](C)CCCC[C@@H](O)C(CO)C(=O)O (stereo partly shown) [compound 2, fusaridioic acid A]	–
–	CC(C)C[C@H](NC(=O)C1OC1C(=O)O)C(=O)NCCCCNC(=N)N (stereo partly drawn) [E-64, 1‐[L‐N‐(trans‐epoxysuccinyl)leucyl] amino‐4‐guanidinobutane]	inhibition at 1 µM (papain [2]): 90%
